Test results taken from PMC12075652, “ATP functions as a pathogen-associated molecular pattern to activate the E3 ubiquitin ligase RNF213” (Nature Communications, 2025).

Assays:
RNF213 (∆N338) [1] = molecular target: T1, RNF213 (∆N338) (Mus musculus, UniProt E9Q555); experiment: antagonism of ATPγS-dependent activation, ABP labelling; format: biochemical; conditions: 900 μM ADP against ATPγS titration; pH 7.5, 2.5 mM MgCl2, 30 °C
T1 construct: N-terminal 338 residues deleted (∆N338), recombinant; biotin UBE2L3~Ub activity-based probe as read-out

[2] = molecular target: T2, RNF213-UBE2L3~Ub complex (RNF213-ABP) (Mus musculus, UniProt E9Q555); experiment: cryo-EM structure, […] Å; format: binding; conditions: ADP modelled in AAA3 and AAA4; ATPγS-stimulated labelling reaction applied directly to grid
T2 construct: full-length murine RNF213 covalently linked at Cys4462 to human UBE2L3~Ub activity-based probe; ubiquitin and RZ domain not resolved; with Ubiquitin-conjugating enzyme E2 L3 (Homo sapiens); Ubiquitin (Homo sapiens)

RNF213 [3] = molecular target: T3, RNF213 (Mus musculus, UniProt E9Q555); experiment: UBE2L3~Ub discharge assay; format: biochemical; conditions: activator; 1 mM nucleotide, 0.025 μM E3, 20 μM E2~Ub
T3 construct: full-length recombinant protein, about 600 kDa, N-terminal Strep(II) tag in the pulldown construct

RNF213 [4] = molecular target: T4, RNF213 (Mus musculus, UniProt E9Q555, E2449Q/E2806Q); experiment: cryo-EM structure, […] Å; format: binding; conditions: ATP modelled in AAA4, AAA3 empty; WB34 mutant
T4 construct: full-length recombinant protein, about 600 kDa, N-terminal Strep(II) tag in the pulldown construct

RNF213 (∆N338) [5] = molecular target: T1, RNF213 (∆N338); experiment: activation of RNF213 labelling by biotin UBE2L3~Ub activity-based probe, blot quantification; format: biochemical

Row | SMILES | antagonism of ATPγS-dependent activation, ABP labelling (RNF213 (∆N338) [1]) | cryo-EM structure, 3.8 Å [2] | UBE2L3~Ub discharge assay (RNF213 [3]) | cryo-EM structure, 4.5 Å (RNF213 [4]) | EC50 (RNF213 (∆N338) [5]) [µM]
1 | Nc1ncnc2c1ncn2[C@@H]1O[C@H](COP(=O)(O)OP(=O)(O)O)[C@@H](O)[C@H]1O [ADP] | These data suggest that ADP inhibits ATP-dependent activation | new density at the AAA3 and AAA4 sites allowed modeling of ADP | – | – | –
2 | Nc1ncnc2c1ncn2[C@@H]1O[C@H](COP(=O)(O)OP(=O)(O)NP(=O)(O)O)[C@@H](O)[C@H]1O [AMP-PNP] | – | – | (ATPγS) and adenylyl-imidodiphosphate (AMP-PNP) also stimulated E2~Ub discharge | – | –
3 | Nc1ncnc2c1ncn2[C@@H]1O[C@H](COP(=O)(O)OP(=O)(O)OP(=O)(O)O)[C@@H](O)[C@H]1O [ATP] | – | – | E3 activity was enhanced by ATP, but not by ADP or AMP | Although ATP could be modeled into AAA4, AAA3 was empty | –
4 | Nc1ncnc2c1ncn2[C@@H]1O[C@H](COP(=O)(O)OP(=O)(O)OP(O)(O)=S)[C@@H](O)[C@H]1O [ATPγS] | – | – | (ATPγS) and adenylyl-imidodiphosphate (AMP-PNP) also stimulated E2~Ub discharge | – | 85
